According to patent US20240092774A1, “HETEROAROMATIC COMPOUNDS AND USES THEREOF” (HUTCHISON MEDIPHARMA LIMITED, priority 2020, published 2024):
Read-outs that look alike come from different tables or passages of the source.

Experiments:
[1] = molecular target: Recombinant human CSF1R kinase (Homo sapiens (Human), UniProt P07333); experiment: Measurement of CSF1R kinase activity at molecular level (Z-LYTE); format: biochemical; settings: Z-LYTE Tyr 1 peptide
Method: Invitrogen, PV3227; • Development reagent B: Invitrogen, PV3295; • Development buffer: Invitrogen. P3127; • Stopping solution: Invitrogen, P3094; • Recombinant human CSF1R kinase: Invitrogen, P[…]; • 384 well plate, black: Corning. 3575; • Envision: Perkin Elmer. 2. […] The test compound was diluted in gradient to 4-fold the reaction concentration and the concentration of DMSO was kept at 8%. […] The mixture was mixed gently with a pipette. • 4) A phosphorylated peptide substrate solution (PP solution): 0.4 μL of Z-LYTETM Tyr1 phosphorylated peptide substrate was added to 99.6 μl of 1.33× kinase buffer. • 5) ATP solution: 10 mM of ATP was diluted to 760 μM with 1.33× kinase buffer to prepare ATP solution. • 6) Development solution: Development reagent B was diluted with Development buffer at a ratio of 1:200. 3. […] 2.5 μL of 4× test compound was added to each reaction well of the 384 plate, and the corresponding volume of 8% DMSO was added to the control well. The plate was placed on ice. […] After adding the reaction components, the 384-well plate was sealed and incubated at 25-30° C. for 1 h in dark. 2) Development Reaction 5 μL of Development solution was added to each well, sealed and incubated at 25-30° C. for another 1 h in dark. 3) Reaction Stopping and Plate Reading 5 μL of stopping solution was added to each well. The Coumarin value (excitation at 400 nm, emission at 445 nm) and Fluorescein value (excitation at 400 nm, emission at 520 nm) were measured, respectively. 4. […] Coumarin emission read-out (445 nm)/Fluorescein emission read-out (520 nm); • C3 445 nm: 100% phosphorylated Coumarin emission read-out; • C3 520 nm: 100% phosphorylated Fluorescein emission read-out; • C1 445 nm: 0% phosphorylated Coumarin emission read-out; • C1 520 nm: 0% phosphorylated Fluorescein emission read-out. […] 5. IC50 values: calculated by using software XL-FitTM (version 5.3) supplied by ID Business Solutions (Guildford, UK), which is an additional software to Microsoft Excel.

[2] = molecular target: CSF1R phosphorylation in THP-1 cells (Homo sapiens (Human), UniProt P07333); experiment: Detection of CSF1R phosphorylation activity at cell level (p-CSF1R ELISA, M-CSF stimulated THP-1 cells); format: cell-based
Method: THP-1 (ATCC), human acute monocytic leukemia cells.
3. Treatment of cells and preparation of lysis buffer
5 μL. of the diluted compound was added to the 50 μL cell culture system, the culture was cultured in a 5% CO2, 37° C. cell incubator for 60 min, 300 ng/mL of M-CSF was added to the cells, and the mixture was stimulated in the 37° C. cell incubator for 1 min, added 50 μL of cell lysis buffer, and stored in a refrigerator at −80° C.
100 μL/well of the p-CSF1R capture antibody diluted to 0.8 μg/mL with PBS was added to the ELISA plate, and the plate was coated on a shaker at room temperature overnight. The culture was washed with PBST, and then added blocking solution and incubated at room temperature for 2 h. The culture was washed with PBST, added 90 μL of cell lysis buffer, and incubated on a shaker at 25° C. for 2 h. The plate was washed with PBST three times, added 100 μL of anti-p-tyrosine-HRP detection antibody diluted with 0.1% PBS-BSA diluent, and incubated on a shaker at 25° C. for 2 h. The plate was washed with PBST washing liquid, added 100 μL of chromogenic substrate and incubated at room temperature for 10-20 min. The reaction was stopped by adding 50 μL of 2N H2SO4. The optical density signal (450/570 nm) of each well was detected in Labsystems Multiskan K3 or Envision.
wherein • Drug-treated well read-out: indicating the optical density signal of a cell well with the test compound treatment. • Background read-out: indicating the optical density signal of a well without cells but with cell lysis buffer. • Cell well read-out: indicating the optical density signal of a cell well not treated with the compound.
6. Calculation of IC50: obtained by using XL-Fit 5.3 software, […]

[3] = THP-1 cells, M-CSF stimulation, p-CSF1R ELISA, read-out: IC50

Sequence of CSF1R phosphorylation in THP-1 cells (P07333 20-972): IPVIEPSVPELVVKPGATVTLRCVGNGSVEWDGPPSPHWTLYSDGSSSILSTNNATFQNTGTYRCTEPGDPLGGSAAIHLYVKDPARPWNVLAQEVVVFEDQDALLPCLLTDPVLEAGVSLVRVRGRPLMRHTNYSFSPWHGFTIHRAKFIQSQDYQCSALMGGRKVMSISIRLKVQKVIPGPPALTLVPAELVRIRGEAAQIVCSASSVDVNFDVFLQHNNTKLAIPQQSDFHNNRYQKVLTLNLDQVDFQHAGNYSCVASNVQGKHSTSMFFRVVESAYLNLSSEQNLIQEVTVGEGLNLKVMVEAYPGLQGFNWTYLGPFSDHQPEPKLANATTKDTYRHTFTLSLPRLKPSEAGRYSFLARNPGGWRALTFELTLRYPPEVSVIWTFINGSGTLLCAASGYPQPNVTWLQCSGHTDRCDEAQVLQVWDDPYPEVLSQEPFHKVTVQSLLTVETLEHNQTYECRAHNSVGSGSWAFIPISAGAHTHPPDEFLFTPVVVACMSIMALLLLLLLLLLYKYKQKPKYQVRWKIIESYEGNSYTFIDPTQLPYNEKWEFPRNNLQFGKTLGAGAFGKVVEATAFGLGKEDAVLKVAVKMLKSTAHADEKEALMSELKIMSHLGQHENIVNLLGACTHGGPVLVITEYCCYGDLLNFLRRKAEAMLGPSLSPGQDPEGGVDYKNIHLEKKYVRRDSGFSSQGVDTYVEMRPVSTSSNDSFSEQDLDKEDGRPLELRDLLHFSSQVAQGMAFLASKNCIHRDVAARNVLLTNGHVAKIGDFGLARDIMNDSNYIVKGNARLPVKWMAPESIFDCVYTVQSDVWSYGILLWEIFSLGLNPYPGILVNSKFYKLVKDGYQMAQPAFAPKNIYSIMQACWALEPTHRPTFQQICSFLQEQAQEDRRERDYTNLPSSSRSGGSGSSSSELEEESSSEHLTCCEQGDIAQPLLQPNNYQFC
Sequence of Recombinant human CSF1R kinase (P07333 20-972): as above

Compound | IC50 [1] [nM] | IC50 [2, 3] [µM] | IC50 ([2]; IC50 (μM)) [µM]
Cn1cc(-c2cc(Oc3cnc4c(c3)OCC(c3ccc(C5CC5)cc3)O4)ccn2)cn1 (racemic) [Compound 48, (R/S)-3-(4-cyclopropylphenyl)-7-((2-(1-methyl-1H-pyrazol-4-yl)pyridin-4-yl)oxy)-2,3-dihydro-[1,4]dioxino[2,3-b]pyridine] | 5 | 0.005 | 
Cn1cc(-c2cc(Oc3cnc4c(c3)OCC(c3ccc(C5CC5)cc3)O4)ccn2)cn1 (racemic) [Compound 51, (R/S)-3-(4-cyclopropylphenyl)-7-((2-(1-methyl-1H-pyrazol-4-yl)pyridin-4-yl)oxy)-2,3-dihydro-[1,4]dioxino[2,3-b]pyridine] | 8 | 0.006 | 
Cn1cc(-c2cc(Oc3cnc4c(c3)OCC(c3ccc(C5CC5)nc3)O4)ccn2)cn1 (racemic) [Compound 53, (R/S)-3-(6-cyclopropylpyridin-3-yl)-7-((2-(1-methyl-1H-pyrazol-4-yl)pyridin-4-yl)oxy)-2,3-dihydro-[1,4]dioxino[2,3-b]pyridine] | 3 | 0.019 | 
Cn1cc(-c2cc(Oc3cnc4c(c3)OCC(c3ccc(C5CC5)nc3)O4)ccn2)cn1 (racemic) [Compound 54, (R/S)-3-(6-cyclopropylpyridin-3-yl)-7-((2-(1-methyl-1H-pyrazol-4-yl)pyridin-4-yl)oxy)-2,3-dihydro-[1,4]dioxino[2,3-b]pyridine] | 2 | 0.022 | 
O=c1ccnc2ccc(Oc3cnc4c(c3)OCC(c3ccc(C5CC5)cc3)O4)cn12 (racemic) [Compound 55, (R/S)-7-((3-(4-cyclopropylphenyl)-2,3-dihydro-[1,4]dioxino[2,3-b]pyridin-7-yl)oxy)-4H-pyrido[1,2-a]pyrimidin-4-one] | 8 | 0.007 | 
O=c1ccnc2ccc(Oc3cnc4c(c3)OCC(c3ccc(C5CC5)cc3)O4)cn12 (racemic) [Compound 56, (R/S)-7-((3-(4-cyclopropylphenyl)-2,3-dihydro-[1,4]dioxino[2,3-b]pyridin-7-yl)oxy)-4H-pyrido[1,2-a]pyrimidin-4-one] | 12 | 0.014 | 
Cn1cc(-c2cc(Oc3cnc4c(c3)O[C@H](c3ccc(C5CC5)cc3)CO4)ccn2)cn1 (single isomer, unassigned) [Compound 49, (R/S)-2-(4-cyclopropylphenyl)-7-((2-(1-methyl-1H-pyrazol-4-yl)pyridin-4-yl)oxy)-2,3-dihydro-[1,4]dioxino[2,3-b]pyridine] | 23 | 0.06 | 
Cn1cc(-c2cc(Oc3cnc4c(c3)O[C@H](c3ccc(C5CC5)cc3)CO4)ccn2)cn1 (single isomer, unassigned) [Compound 50, (R/S)-2-(4-cyclopropylphenyl)-7-((2-(1-methyl-1H-pyrazol-4-yl)pyridin-4-yl)oxy)-2,3-dihydro-[1,4]dioxino[2,3-b]pyridine] | 73 | 0.197 | 
COc1ccc(COc2ccc(Oc3ccc4ncc(C)c(=O)n4c3)cn2)cc1 [Compound 1, 7-((6-((4-methoxybenzyl)oxy)pyridin-3-yl)oxy)-3-methyl-4H-pyrido[1,2-a]pyrimidin-4-one] | 10 |  | 0.052
Cc1cnc2ccc(Oc3ccc(OCc4ccc(F)cc4)nc3)cn2c1=O [Compound 3] | 81 |  | 
Cc1cnc2ccc(Oc3ccc(OCc4ccc(F)c(Cl)c4)nc3)cn2c1=O [Compound 4] | 129 |  | 
COc1ccc(COc2ncc(Oc3ccc4ncc(C)c(=O)n4c3)cc2OC)cc1 [Compound 6] | 7 | 0.004 | 
C#Cc1ccc(COc2ncc(Oc3ccc4ncc(C)c(=O)n4c3)cc2OC)cc1 [Compound 7] | 15 |  | 
COc1cc(Oc2ccc3ncc(C)c(=O)n3c2)cnc1OCc1ccc(C(C)C)cc1 [Compound 8] | 67 | 0.029 | 
COc1cc(Oc2ccc3ncc(C)c(=O)n3c2)cnc1OCc1ccc(C2CC2)c(F)c1 [Compound 9] | 63 | 0.006 | 
COc1cc(Oc2ccc3ncc(C)c(=O)n3c2)cnc1OCc1cccc(C(C)(C)C#N)c1 [Compound 10] | 44 | 0.08 | 
COc1cc(Oc2ccc3ncc(C)c(=O)n3c2)cnc1OCc1ccc(C2CC2)cc1F [Compound 11] | 61 | 0.164 | 
COc1cc(Oc2ccnc(-c3cnn(C)c3)c2)cnc1OCc1ccc(C2CC2)cc1 [Compound 12] | 13 | 0.005 | 
COc1cc(Oc2ccc3ncc(C)c(=O)n3c2)cnc1OCc1ccc(C2CC2F)cc1 (stereo not drawn) [Compound 13] | 8 | 0.017 | 
Cc1cnc2ccc(Oc3cnc(OCc4ccc(C5CC5)cc4)c(OCF)c3)cn2c1=O [Compound 14] | 28 | 0.048 | 

Compound | IC50 [1] [nM] | IC50 [2, 3] [µM] | IC50 ([2]; IC50 (μM)) [µM]
COc1cc(Oc2ccc3ncc(C)c(=O)n3c2)cnc1OCc1ccc(C2CC2(F)F)cc1 (stereo not drawn) [Compound 15] | 10 | 0.015 | 
COc1cc(Oc2ccc3ncn(C)c(=O)c3c2)cnc1OCc1ccc(C2CC2)cc1 [Compound 16] | 22 | 0.005 | 
COc1cc(Oc2ccc3c(c2)C2=NCCN2C=N3)cnc1OCc1ccc(C2CC2)cc1 [Compound 17] | 15 | 0.018 | 
COc1cc(Oc2ccc3ncccc3c2)cnc1OCc1ccc(C2CC2)cc1 [Compound 18] | 33 | 0.005 | 
COc1cc(Oc2ccc3ncc(C)c(=O)n3c2)cnc1OCc1ccc(Cl)cc1 [Compound 19, 7-((6-((4-chlorobenzyl)oxy)-S-methoxypyridin-3-yl)oxy)-3-methyl-4H-pyrido[1,2-a]pyrimidin-4-one] |  | 0.031 | 
COc1ccc(COc2ncc(Oc3ccc4ncc(C)c(=O)n4c3)cc2F)cc1 [Compound 20] | 24 | 0.06 | 
COc1cc(Oc2ccc3ncc(C)c(=O)n3c2)cnc1OCc1ccc(C2CC2)cc1 [Compound 21] | 13 | 0.008 | 
COc1cc(Oc2ccc3ncc(N)c(=O)n3c2)cnc1OCc1ccc(C2CC2)cc1 [Compound 22] | 12 | 0.009 | 
COc1cc(Oc2ccc3ncc(C)c(=O)n3c2)cnc1OCc1ccc(-n2cccn2)cc1 [Compound 23] | 5 | 0.129 | 
COc1cc(Oc2ccc3ncc(N)c(=O)n3c2)cnc1OCc1ccc(-n2cccn2)cc1 [Compound 24] | 3 | 0.034 | 
COc1cc(Oc2ccc3nccc(=O)n3c2)cnc1OCc1ccc(C2CC2)cc1 [Compound 25] | 8 | 0.004 | 
COc1cc(Oc2ccc3ncc(C)c(=O)n3c2)cnc1OCc1cccc(Cl)c1 [Compound 26] | 6 | 0.108 | 
COc1cc(Oc2ccc3ncc(C)c(=O)n3c2)cnc1OCc1ccc(C(C)(C)O)cc1 [Compound 27] | 16 | 0.045 | 
COc1cc(Oc2ccc3ncc(C)c(=O)n3c2)cnc1OCc1ccc(C(C)(C)C#N)cc1 [Compound 28] | 70 |  | 
COc1ccc(COc2ncc(Oc3ccc4ncc(C)c(=O)n4c3)cn2)cc1 [Compound 29] | 6 | 0.023 | 
COc1ccc(COc2ncc(Oc3ccc4ncc(C)c(=O)n4c3)cc2C#N)cc1 [Compound 30] | 460 |  | 
COc1ccc(COc2ncc(Oc3ccc4ncc(N)c(=O)n4c3)cc2C)cc1 [Compound 33] | 150 |  | 
COc1ccc(COc2ncc(Oc3ccc4ncc(C)c(=O)n4c3)cc2C)cc1 [Compound 34] | 499 |  | 
COc1ccc([C@H]2COc3cc(Oc4ccc5nccc(=O)n5c4)cnc3O2)nc1 [Compound 77] | 80 |  | 
